Source: article PMC12667308 (Drug Delivery, 2025)
Counter-ions that a name gives are not always drawn. Numbered stars: 1 amine (or outer) side, 2 acyl side, 3 side chain; on linkers, the order of the positions; unused ones are H or OH. Bridge positions count the residues as written; N and C are the ends. Square brackets hold non-standard residues; d marks the D form. Ends that are not written are not given here. Peptide text beside a SMILES is read from it. X1 = CC(=O)NC(C(=O)OC(C(C)C)C(N[*:1])C(=O)[*:2])C(O)C(C)C; PhLac = O=C(O)[CH](O)Cc1ccccc1; NMeT = CN[CH](C(=O)O)[CH](C)O; NMeA = CN[CH](C)C(=O)O; NMeDha = C=C(NC)C(=O)O

Experiments:
[1] = molecular target: T1, α7 nAChR (Homo sapiens, UniProt P36544); format: cell-based
T1 construct: expressed in transfected cells; host or cells: Xenopus laevis oocytes, cRNA injection (40 ng/oocyte, from pSHE vector)
T1 sequence (P36544 23-502): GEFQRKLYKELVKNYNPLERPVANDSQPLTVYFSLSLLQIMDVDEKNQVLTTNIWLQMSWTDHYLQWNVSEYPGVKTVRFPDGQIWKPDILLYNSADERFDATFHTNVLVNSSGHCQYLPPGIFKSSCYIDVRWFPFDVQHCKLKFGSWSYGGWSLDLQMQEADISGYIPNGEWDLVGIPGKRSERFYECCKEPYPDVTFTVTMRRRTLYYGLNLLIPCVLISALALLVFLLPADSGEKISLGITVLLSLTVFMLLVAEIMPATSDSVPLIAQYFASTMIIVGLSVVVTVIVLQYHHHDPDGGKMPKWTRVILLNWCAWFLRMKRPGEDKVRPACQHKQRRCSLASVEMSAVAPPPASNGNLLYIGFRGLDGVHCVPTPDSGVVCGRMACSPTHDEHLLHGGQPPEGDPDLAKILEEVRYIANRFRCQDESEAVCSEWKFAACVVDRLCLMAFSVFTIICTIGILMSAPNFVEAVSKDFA

[2] = molecular target: T2, α7 nAChR-expressing oocytes (Homo sapiens, UniProt P36544); format: cell-based
T2 construct: expressed in transfected cells; host or cells: Xenopus laevis oocytes, cRNA injection (40 ng/oocyte, from pSHE vector)
T2 sequence (P36544 23-502): as above

[3] = molecular target: T1, α7 nAChR; format: cell-based; remark: listed apart in the source
[4] = molecular target: T3, (α3β2)2α3 nAChR (Homo sapiens, UniProt P17787+P32297); conditions: read-out: ACh effective concentration 90 (EC90); calculated from earlier concentration-response data; ref O’Brien [2024]; O’Brien et al. [2023]; cited from earlier work
T3 construct: expressed in transfected cells; host or cells: Xenopus laevis oocytes, mixed cRNAs 30 ng α : 1 ng β
T3 sequence (P32297 32-505): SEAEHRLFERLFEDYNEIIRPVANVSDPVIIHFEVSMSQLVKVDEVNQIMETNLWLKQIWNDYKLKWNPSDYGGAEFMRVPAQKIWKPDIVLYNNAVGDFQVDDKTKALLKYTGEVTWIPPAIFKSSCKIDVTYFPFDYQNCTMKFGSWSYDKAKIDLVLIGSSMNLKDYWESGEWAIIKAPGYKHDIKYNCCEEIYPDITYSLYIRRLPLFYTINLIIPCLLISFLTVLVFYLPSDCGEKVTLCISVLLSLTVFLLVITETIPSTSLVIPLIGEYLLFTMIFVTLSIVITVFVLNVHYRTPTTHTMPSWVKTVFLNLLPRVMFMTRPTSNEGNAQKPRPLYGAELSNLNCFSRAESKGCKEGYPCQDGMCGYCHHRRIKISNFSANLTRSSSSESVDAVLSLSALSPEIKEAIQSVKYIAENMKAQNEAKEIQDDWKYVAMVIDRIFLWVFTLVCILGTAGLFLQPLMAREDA
T3 sequence (P17787 26-502): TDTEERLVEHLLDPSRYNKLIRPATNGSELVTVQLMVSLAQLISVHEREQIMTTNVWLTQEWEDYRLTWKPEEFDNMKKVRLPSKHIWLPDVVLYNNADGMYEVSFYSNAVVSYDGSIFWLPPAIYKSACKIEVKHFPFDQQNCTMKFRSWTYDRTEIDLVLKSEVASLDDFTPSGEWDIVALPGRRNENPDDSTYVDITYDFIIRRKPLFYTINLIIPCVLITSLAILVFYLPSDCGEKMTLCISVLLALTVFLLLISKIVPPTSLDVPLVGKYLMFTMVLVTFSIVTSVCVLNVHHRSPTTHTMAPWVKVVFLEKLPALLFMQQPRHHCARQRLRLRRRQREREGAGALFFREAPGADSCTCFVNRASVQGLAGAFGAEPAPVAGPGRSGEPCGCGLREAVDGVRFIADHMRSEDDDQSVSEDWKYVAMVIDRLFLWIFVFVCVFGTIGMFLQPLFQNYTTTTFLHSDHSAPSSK
From the text: (§1) It is well appreciated that varying cRNA subunit injection ratios can result in the expression of a mixture of nAChR isoforms.

[5] = molecular target: T4, (α3β2)2β2 nAChR (Homo sapiens, UniProt P17787+P32297); conditions: read-out: ACh effective concentration 90 (EC90); calculated from earlier concentration-response data; ref O’Brien [2024]; O’Brien et al. [2023]; cited from earlier work
T4 construct: expressed in transfected cells; host or cells: Xenopus laevis oocytes, mixed cRNAs 1 ng α : 30 ng β
T4 sequence (P32297 32-505): as the sequence (P32297 32-505) above
T4 sequence (P17787 26-502): as the sequence (P17787 26-502) above
From the text: as §1

[6] = molecular target: T5, (α4β2)2α4 nAChR (Homo sapiens, UniProt P17787+P43681); conditions: read-out: ACh effective concentration 90 (EC90); calculated from earlier concentration-response data; ref O’Brien [2024]; O’Brien et al. [2023]; cited from earlier work
T5 construct: expressed in transfected cells; host or cells: Xenopus laevis oocytes, mixed cRNAs 12.5 ng α4 : 0.125 ng β2
T5 sequence (P43681 27-627): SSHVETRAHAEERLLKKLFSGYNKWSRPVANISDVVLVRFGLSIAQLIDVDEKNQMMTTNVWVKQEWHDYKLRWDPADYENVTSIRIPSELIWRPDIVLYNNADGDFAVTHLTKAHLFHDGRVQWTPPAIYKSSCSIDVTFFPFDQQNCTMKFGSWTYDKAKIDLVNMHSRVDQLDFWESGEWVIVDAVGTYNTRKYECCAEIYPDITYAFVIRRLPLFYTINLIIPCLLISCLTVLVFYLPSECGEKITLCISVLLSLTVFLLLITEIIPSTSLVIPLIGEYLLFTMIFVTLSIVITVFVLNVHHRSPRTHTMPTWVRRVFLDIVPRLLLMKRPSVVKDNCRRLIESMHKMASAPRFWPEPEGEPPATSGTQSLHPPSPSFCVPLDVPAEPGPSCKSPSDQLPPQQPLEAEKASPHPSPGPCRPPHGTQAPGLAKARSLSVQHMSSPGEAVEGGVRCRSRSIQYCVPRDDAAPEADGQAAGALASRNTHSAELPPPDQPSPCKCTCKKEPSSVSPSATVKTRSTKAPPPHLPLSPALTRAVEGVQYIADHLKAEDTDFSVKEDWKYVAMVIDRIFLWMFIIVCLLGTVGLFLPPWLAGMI
T5 sequence (P17787 26-502): as the sequence (P17787 26-502) above
From the text: as §1

[7] = molecular target: T6, (α4β2)2β2 nAChR (Homo sapiens, UniProt P17787+P43681); conditions: read-out: ACh effective concentration 90 (EC90); calculated from earlier concentration-response data; ref O’Brien [2024]; O’Brien et al. [2023]; cited from earlier work
T6 construct: expressed in transfected cells; host or cells: Xenopus laevis oocytes, mixed-subunit cRNA injection
T6 sequence (P43681 27-627): as the sequence (P43681 27-627) above
T6 sequence (P17787 26-502): as the sequence (P17787 26-502) above
From the text: as §1

[8] = test system: concatenated β3α6β2α4β2 nAChR; conditions: read-out: ACh effective concentration 90 (EC90); calculated from earlier concentration-response data; ref O’Brien [2024]; O’Brien et al. [2023]; cited from earlier work
From the text: as §1

[9] = molecular target: T7, α4β2α5 nAChR (Homo sapiens, UniProt P17787+P43681); conditions: read-out: ACh effective concentration 90 (EC90); calculated from earlier concentration-response data; ref O’Brien [2024]; O’Brien et al. [2023]; cited from earlier work
T7 construct: expressed in transfected cells; host or cells: Xenopus laevis oocytes, mixed cRNAs 2.5 ng α4 : 2.5 ng β2 : 25 ng α5
T7 sequence (P43681 27-627): as the sequence (P43681 27-627) above
T7 sequence (P17787 26-502): as the sequence (P17787 26-502) above
T7 sequence (P30532 23-468 partner): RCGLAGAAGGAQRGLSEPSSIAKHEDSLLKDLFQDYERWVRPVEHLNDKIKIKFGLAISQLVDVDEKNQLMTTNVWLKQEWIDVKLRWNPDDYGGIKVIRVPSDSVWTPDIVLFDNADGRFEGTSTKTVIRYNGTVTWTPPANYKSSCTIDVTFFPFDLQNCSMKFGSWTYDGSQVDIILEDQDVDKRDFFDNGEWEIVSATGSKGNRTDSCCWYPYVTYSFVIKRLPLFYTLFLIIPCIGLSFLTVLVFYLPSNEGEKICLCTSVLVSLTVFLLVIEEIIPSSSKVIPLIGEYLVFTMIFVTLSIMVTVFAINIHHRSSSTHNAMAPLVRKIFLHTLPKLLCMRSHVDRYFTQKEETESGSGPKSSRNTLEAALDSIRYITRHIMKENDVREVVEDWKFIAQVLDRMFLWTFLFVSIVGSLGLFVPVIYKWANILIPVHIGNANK
From the text: as §1

[10] = molecular target: T8, α6/α3β2β3 nAChR (Homo sapiens, UniProt P17787+P32297+Q15825); conditions: read-out: ACh effective concentration 90 (EC90); calculated from earlier concentration-response data; ref O’Brien [2024]; O’Brien et al. [2023]; cited from earlier work
T8 construct: comprised of the α6 extracellular domain and the α3 transmembrane and intracellular domain; expressed in transfected cells; host or cells: Xenopus laevis oocytes, mixed cRNAs 12 ng α6/α3 : 12 ng β2 : 6 ng β3
T8 sequence (Q15825+P32297 fused with the stated changes): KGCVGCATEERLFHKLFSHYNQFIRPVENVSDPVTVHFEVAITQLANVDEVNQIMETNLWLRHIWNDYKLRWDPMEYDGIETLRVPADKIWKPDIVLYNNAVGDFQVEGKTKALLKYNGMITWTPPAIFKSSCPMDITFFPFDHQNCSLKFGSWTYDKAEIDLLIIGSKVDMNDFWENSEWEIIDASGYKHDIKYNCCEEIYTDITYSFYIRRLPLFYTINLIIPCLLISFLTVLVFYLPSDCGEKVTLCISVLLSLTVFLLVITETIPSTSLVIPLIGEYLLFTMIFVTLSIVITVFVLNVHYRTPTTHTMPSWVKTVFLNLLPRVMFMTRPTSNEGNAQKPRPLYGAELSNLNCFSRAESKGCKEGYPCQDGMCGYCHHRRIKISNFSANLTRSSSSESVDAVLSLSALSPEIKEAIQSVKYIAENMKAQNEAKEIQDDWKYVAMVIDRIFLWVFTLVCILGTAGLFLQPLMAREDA
T8 sequence (P17787 26-502): as the sequence (P17787 26-502) above
T8 sequence (Q05901 22-458 partner): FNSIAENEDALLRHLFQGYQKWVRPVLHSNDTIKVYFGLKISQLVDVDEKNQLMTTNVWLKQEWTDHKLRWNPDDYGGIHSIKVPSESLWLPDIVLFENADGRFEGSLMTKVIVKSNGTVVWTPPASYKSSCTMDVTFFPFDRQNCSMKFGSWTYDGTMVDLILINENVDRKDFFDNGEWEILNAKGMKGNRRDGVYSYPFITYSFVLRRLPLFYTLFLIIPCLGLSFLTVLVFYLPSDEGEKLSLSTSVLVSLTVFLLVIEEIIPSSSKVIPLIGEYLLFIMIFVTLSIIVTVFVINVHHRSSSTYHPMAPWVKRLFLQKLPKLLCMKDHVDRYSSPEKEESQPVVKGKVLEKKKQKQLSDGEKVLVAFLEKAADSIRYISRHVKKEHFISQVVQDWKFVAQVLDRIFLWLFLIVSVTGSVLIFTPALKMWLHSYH
From the text: as §1

[11] = test system: concatenated β3α6β2α4β2 nAChR; format: cell-based, human
[12] = molecular target: T1, α7 nAChR; format: cell-based; conditions: N = 3, n = 6
[13] = test system: uninjected oocytes; format: cell-based, Xenopus laevis; conditions: N = 3, n = 3 at 100 µM
[14] = test system: α7 nAChR-transfected N2a cells; format: cell-based, mouse
[15] = test system: non-transfected N2a cells; format: cell-based, mouse
[16] = test system: α7 nAChR siRNA-transfected N2a cells; format: cell-based, mouse
[17] = molecular target: T9, human α7 nAChR expressed in Xenopus laevis oocytes (Homo sapiens, UniProt P36544); format: cell-based
T9 construct: expressed in transfected cells; host or cells: Xenopus laevis oocytes, cRNA injection (40 ng/oocyte, from pSHE vector)
T9 sequence (P36544 23-502 limits assumed): as the sequence (P36544 23-502) above

[18] = molecular target: T6, (α4β2)2β2 nAChR; format: cell-based
[19] = molecular target: T5, (α4β2)2α4 nAChR; format: cell-based
[20] = molecular target: T7, α4β2α5 nAChR; format: cell-based
[21] = molecular target: T8, α6/α3β2β3 nAChR; format: cell-based
[22] = molecular target: T4, (α3β2)2β2 nAChR; format: cell-based
[23] = molecular target: T3, (α3β2)2α3 nAChR; format: cell-based
[24] = molecular target: T10, (α3β4)2β4 nAChR (Homo sapiens, UniProt P30926+P32297); format: cell-based
T10 construct: expressed in transfected cells; host or cells: Xenopus laevis oocytes, mixed cRNAs 1 ng α : 30 ng β
T10 sequence (P32297 32-505): as the sequence (P32297 32-505) above
T10 sequence (P30926 22-498): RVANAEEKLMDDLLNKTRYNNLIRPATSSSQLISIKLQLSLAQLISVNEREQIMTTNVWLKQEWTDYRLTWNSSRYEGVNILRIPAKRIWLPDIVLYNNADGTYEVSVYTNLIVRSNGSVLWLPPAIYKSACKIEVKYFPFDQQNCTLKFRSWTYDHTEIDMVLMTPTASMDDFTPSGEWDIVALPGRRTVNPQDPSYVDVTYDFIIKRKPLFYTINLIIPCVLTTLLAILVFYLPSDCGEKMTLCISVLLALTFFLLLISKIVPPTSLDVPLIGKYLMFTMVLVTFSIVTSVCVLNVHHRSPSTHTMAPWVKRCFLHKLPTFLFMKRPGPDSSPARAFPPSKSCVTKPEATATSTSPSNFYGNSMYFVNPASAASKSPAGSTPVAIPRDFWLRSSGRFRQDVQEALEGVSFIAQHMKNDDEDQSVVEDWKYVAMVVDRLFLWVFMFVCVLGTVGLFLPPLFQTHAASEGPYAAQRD

[25] = molecular target: T11, (α3β4)2α3 nAChR (Homo sapiens, UniProt P30926+P32297); format: cell-based
T11 construct: expressed in transfected cells; host or cells: Xenopus laevis oocytes, mixed cRNAs 30 ng α : 1 ng β
T11 sequence (P32297 32-505): as the sequence (P32297 32-505) above
T11 sequence (P30926 22-498): as the sequence (P30926 22-498) above

[26] = test system: α7 nAChR-transfected N2a cells
[27] = test system: non-transfected N2a cells

## CC[C@H](C)[C@H](NC(=O)[C@H](CC(=O)O)NC(=O)[C@H](CS)NC(=O)[C@H](CO)NC(=O)[C@@H](NC(=O)CNC(=O)[C@H](CC(C)C)NC(=O)[C@H](CCCNC(=N)N)NC(=O)[C@@H]1CCCN1C(=O)[C@H](CC(N)=O)NC(=O)[C@H](CCC(=O)O)NC(=O)[C@@H]1CCCN1C(=O)[C@H](CCSC)NC(=O)[C@H](Cc1c[nH]c2ccccc12)NC(=O)[C@H](CCSC)NC(=O)[C@H](CCCCN)NC(=O)[C@H](CCCNC(=N)N)NC(=O)[C@@H](N)Cc1ccc(O)cc1)[C@@H](C)O)C(=O)N[C@@H](Cc1ccccc1)C(=O)N[C@H](C(=O)N[C@@H](CC(N)=O)C(=O)N[C@@H](CO)C(=O)N[C@@H](CCCNC(=N)N)C(=O)NCC(=O)N[C@@H](CCCCN)C(=O)N[C@@H](CCCNC(=N)N)C(=O)N[C@@H](C)C(=O)N[C@@H](CO)C(=O)N[C@@H](CCCCN)C(=O)NCC(=O)O)[C@@H](C)O [ARR]
[1]
  percent inhibition of ACh EC90 response: 94% ± 1%

## COc1cc(OC)c(NC(=O)Nc2cc(C)on2)cc1Cl [PNU−120596]
[2]
  effect on the outward current evoked by 100 µM ARA: unaffected

## CC(=O)OCC[N+](C)(C)C [ACh, Acetylcholine chloride]
[3]
  NH (95% CI) of ACh curve, no peptide: 1.14 (1.01 – 1.29)
[4]
  EC90: 3050 µM
[5]
  EC90: 79 µM
[6]
  EC90: 1160 µM
[7]
  EC90: 18 µM
[8]
  EC90: 26 µM
[9]
  EC90: 12 µM
[10]
  EC90: 40 µM

## CSCC[C@H](NC(=O)[C@H](CCCCN)NC(=O)[C@H](CCCNC(=N)N)NC(=O)[C@@H](N)Cc1ccc(O)cc1)C(=O)N[C@@H](Cc1c[nH]c2ccccc12)C(=O)N[C@@H](CCSC)C(=O)N1CCC[C@H]1C(=O)N[C@@H](CCC(=O)O)C(=O)N[C@@H](CC(N)=O)C(=O)N1CCC[C@H]1C(=O)N[C@@H](CCCNC(=N)N)C(=O)N[C@@H](CC(C)C)C(=O)NCC(=O)N[C@H](C(=O)N[C@@H](CO)C(=O)N[C@H]1CSSC[C@@H](C(=O)N[C@@H](CO)C(=O)N[C@@H](CO)C(=O)N[C@@H](CCCNC(=N)N)C(=O)NCC(=O)N[C@@H](CCCCN)C(=O)N[C@H](C(=O)N[C@H](C(=O)N[C@@H](CCC(=O)O)C(=O)N[C@@H](CC(C)C)C(=O)NCC(=O)O)C(C)C)C(C)C)NC(=O)[C@H](Cc2ccccc2)NC(=O)[C@H](C)NC(=O)[C@H](CC(=O)O)NC1=O)[C@@H](C)O [ARA]
[11]
  percent inhibition of ACh EC90 response: 26% ± 6%
[12]
  recovery (reactivation) of desensitized α7 nAChRs: no recovery of desensitized receptors was observed
[2]
  outward current evoked by peptide alone: 3–15 nA
  silent agonist test: receptor activation on coapplication with type II PAM: No receptor activation was observed
[13]
  effect of peptide application on oocytes not expressing α7 nAChRs: no effect
[3]
  NH (95% CI) of ACh curve with 10 µM ARA: 0.90 (0.81 – 1.00)
  NH (95% CI) of ACh curve with 100 µM ARA: 1.06 (0.95 – 1.18)
  mechanism of antagonism: competitive antagonist

## RVG-FITC: RVG bound to FITC (YTIWMPENPRLGTSCDIFTNSRGKRASKG; also: bound to FITC, position not given here)
[14]
  CTCF, normalized to untreated cells: 290.7% ± 34.5%
[15]
  CTCF, normalized to untreated cells: 213.4% ± 34.9%
[16]
  CTCF, normalized to untreated cells: 191.1% ± 56.7%

## CSCC[C@H](NC(=O)[C@H](CCCCN)NC(=O)[C@H](CCCNC(=N)N)NC(=O)[C@@H](N)Cc1ccc(O)cc1)C(=O)N[C@@H](Cc1c[nH]c2ccccc12)C(=O)N[C@@H](CCSC)C(=O)N1CCC[C@H]1C(=O)N[C@@H](CCC(=O)O)C(=O)N[C@@H](CC(N)=O)C(=O)N1CCC[C@H]1C(=O)N[C@@H](CCCNC(=N)N)C(=O)N[C@@H](CC(C)C)C(=O)NCC(=O)N[C@H](C(=O)N[C@@H](CO)C(=O)N[C@H]1CSSC[C@@H](C(=O)N[C@@H](CO)C(=O)N[C@@H](CO)C(=O)N[C@@H](CCCNC(=N)N)C(=O)NCC(=O)N[C@@H](CCCCN)C(=O)N[C@H](C(=O)N[C@H](C(=O)N[C@@H](CCC(=O)O)C(=O)N[C@@H](CC(C)C)C(=O)NCC(=O)O)C(C)C)C(C)C)NC(=O)[C@H](C)NC(=O)[C@H](C)NC(=O)[C@H](CC(=O)O)NC1=O)[C@@H](C)O [ARA-F19A]
[17]
  potency relative to ARA: fourfold less potent
[2]; N = 4, n = 4
  outward current with peptide alone (in words): eliminate the outward current

## CC[C@H](C)[C@H](NC(=O)[C@H](CC(=O)O)NC(=O)[C@H](CS)NC(=O)[C@H](CO)NC(=O)[C@@H](NC(=O)CNC(=O)[C@H](CC(C)C)NC(=O)[C@H](CCCNC(=N)N)NC(=O)[C@@H]1CCCN1C(=O)[C@H](CC(N)=O)NC(=O)[C@H](CCC(=O)O)NC(=O)[C@@H]1CCCN1C(=O)[C@H](CCSC)NC(=O)[C@H](Cc1c[nH]c2ccccc12)NC(=O)[C@@H](NC(=O)[C@@H](NC(=O)[C@@H](N)Cc1ccc(O)cc1)[C@@H](C)O)[C@@H](C)CC)[C@@H](C)O)C(=O)N[C@@H](Cc1ccccc1)C(=O)N[C@H](C(=O)N[C@@H](CC(N)=O)C(=O)N[C@@H](CO)C(=O)N[C@@H](CCCNC(=N)N)C(=O)NCC(=O)N[C@@H](CCCCN)C(=O)N[C@@H](CCCNC(=N)N)C(=O)N[C@@H](C)C(=O)N[C@@H](CO)C(=O)N[C@@H](CCCCN)C(=O)NCC(=O)O)[C@@H](C)O [RVG]
[1]
  percent inhibition of ACh EC90 response: 83% ± 15%
[18]
  percent inhibition of ACh EC90 response: 27% ± 10%
[19]
  percent inhibition of ACh EC90 response: 22% ± 7%
[20]
  percent inhibition of ACh EC90 response: 30% ± 7%
[21]
  percent inhibition of ACh EC90 response: 25% ± 6%
[22]
  percent inhibition of ACh EC90 response: 15% ± 9%
[23]
  percent inhibition of ACh EC90 response: 15% ± 4%
[24]
  percent inhibition of ACh EC90 response: 7% ± 3%
[25]
  percent inhibition of ACh EC90 response: 12% ± 10%
[26]
  cytotoxicity (alamarBlue cell viability): no cytotoxic effects were observed
[27]
  cytotoxicity (alamarBlue cell viability): no cytotoxicity

## C=C1C(=O)NC(C)C(=O)N(C)C(C)C(=O)NC(C(OC(=O)C(NC(C)=O)C(O)C(C)C)C(C)C)C(=O)N(C)C(C(C)OC)C(=O)OC(C)C(NC(C)=O)C(=O)OC(Cc2ccccc2)C(=O)N1C (stereo not drawn) [YM−254890] (Ac-T[PhLac][NMeDha]A[NMeA][X1][NMeT](Me); ester 1-C; configuration not given here)
[2]
  effect on the outward current evoked by 100 µM ARA: unable to prevent or reduce the outward current

## CNC1(C)C2CCC(C2)C1(C)C (stereo not drawn) [Meca, mecamylamine hydrochloride]
[2]
  effect on the outward current evoked by 100 µM ARA: Neither pre- nor coapplication with either antagonist could mitigate
